Test results published in patent publication US4603209A, “Fluorescent indicator dyes for calcium ions” (priority 1984, dated 1986).
Where two headings read alike, the source gives them in different places. Values belong to the molecule of their own block, whether it stands above or below them.

Columns and labels:
[1] = Ca2+ titration of dye fluorescence in Ca-EGTA buffers; format: binding; settings: for Kd: read-out: Apparent Kd for Ca^2+
Procedure: The excitation bandwidth was 1.9 nm, the emission was collected at 510 nm with 4.6 nm bandwidth, and the spectra were automatically corrected for excitation lamp and monochromator characteristics using a rhodamine B quantum counter. The titration was done starting with 5 ml of 100 mM KCl, 10 mM KMOPS, 10 mM K2 H2 EGTA, 1 microM fura-2, adjusting the pH to 7.20, recording the spectrum, then discarding 0.5 ml of this solution and replacing with 0.5 ml of 100 mM KCl, 10 mM KMOPS, 10 mM K2 CaEGTA, 1 microM fura-2, readjusting the pH to 7.20, and recording the spectrum which was then in 9 mM K2 H2 EGTA and 1 mM K2 CaEGTA. Subsequent iterations to reach n mM CaEGTA, (10-n) mM EGTA, n=2-10, were done by discarding 5.0/(11-n) ml and replacing with equal volumes of the 10 mM K2 CaEGTA -1 microM fura-2 stock. After n=10 had been reached to give a free Ca^2+ between 10^-4 and 10^-5 M, addition of 1 mM CaCl2 had no further effect on the spectrum. Equality of Ca and EGTA contents in the K2 CaEGTA solution was insured by titration of K2 H2 EGTA with CaCl2 to the potentiometric endpoint measured with a Ca^2+ -selective electrode. EGTA was Fluka Chemical "puriss" grade.
The dye, 6 microM, was titrated in 115 mM KCl, 20 mM NaCl, 10 mM MOPS, 1.115 mM MgCl2, 1.115 mM K2 H2 EGTA, KOH to pH 7.050±0.004, 37° C., to which small aliquots of K2 CaEGTA were added from a micrometer syringe to raise free Ca^2+ to the values labeling each curve, in units of nM unless otherwise specified. Excitation was at 355 nm, and both excitation and emission were set to 5 nm bandwidth. These spectra are not corrected for the emission sensitivity characteristics of the Perkin Elmer MPF-44; in particular the notch at 465 nm is an instrumental artifact. Corrected emission spectra show the low-Ca 485 nm peak to be of very similar amplitude to the high-Ca 404 nm peak when excitation is at 355-356 nm.
Free [Ca^2+ ] levels were controlled by Ca-EGTA buffers assuming apparent dissociation constants for Ca-EGTA of 380 nM at pH 7.00 in 0.1M KCl, 20° C.; 151 nM at pH 7.20 in 0.1M KCl, 20° C.; 214 nM at pH 7.05 in 130 mM KCl, 20 mM NaCl at 37° C.; and 490 nM at pH 7.02 in 225 mM KCl, 25 mM NaCl at 18° C. The first three apparent dissociation constants were calculated from the tables of Martell & Smith (see reference 11) as discussed in referencess 1 and 12. The last value was freshly determined in this study because no appropriate absolute constants were available at the higher ionic strength, and existing estimates in the biological literature (see references 13-17) vary by an unacceptably large range, >0.5 log unit. For this determination we chose the classic and reliable method of pH titration in the presence and absence of excess metal ion (see references 18). Details are included in the METHODS OF SYNTHESIS section, supra.
Dissociation constants for the new indicators disclosed herein, as exemplified by chelators stil-1, stil-2, indo-1, fura-1, fura-2 and fura-3 (see Table I, infra), are in the range 100-300 nM at ionic strengths near 0.1 to 0.15. Such values are close to the dissociation constant (110 nM) of the parent compound BAPTA (see reference 6), showing that the substituents that make up the rest of the chromophores are only slightly electron-withdrawing. […] A considerable decrease in Ca^2+ binding strength is observed, to an apparent dissociation constant of 760 nM. Such a strong dependence on ionic strength is not surprising for the reaction of a tetravalent anion with a divalent cation.
where Kd is the effective dissociation constant. The fluorescence ratio R is the ratio [formula] Solving for [Ca^2+ ] yields the calibration equation: [formula] Note that FA1 /FA2 is simply the limiting value that R can have at zero [Ca^2+ ] and so may be considered Rmin, while FB1 /FB2 is the analogous limiting Rmax that the ratio has at saturating [Ca^2+ ]. […]

[2] = Mg2+ titration of dye excitation spectrum in Mg-EGTA buffers; format: binding; settings: 0.1-0.15M ionic strength, read-out: Mg^2+ dissociation constant
Procedure: An excitation spectrum was recorded of 2 microM fura-2 in 2.5 ml 32 mM KCl, 1 mM EGTA, 10 mM MOPS, adjusted with KOH to pH 7.18 while thermostatted at 20° C. Then 25 microliters of this solution was discarded and replaced by 25 microliters of a solution containing 2 microM fura-2, 104.8 mM MgCl2, 5.8 mM EGTA, 10 mM MOPS, adjusted with KOH to pH 7.18. Since both stocks had 1 mM free EGTA but the latter had 100 mM free Mg, the 99:1 v/v composite went to 1.0 mM free Mg^2+. Further iterations attained 2, 5, 10, and 20 mM free Mg^2+ by successively discarding 25.25, 76.53, 131.6, and 277.8 microliters of the mixture and replacing each with an equal volume of the high-Mg stock. Emission was collected at 510 nm, 4.6 nm bandpass, and excitation 0.9 nm bandpass.
Free [Mg^2+ ] was likewise controlled by Mg-EGTA buffers assuming an apparent dissociation constant for Mg-EGTA of 21 mM at pH 7.18 in 130 mM KCl at 20°, 8.96 mM at pH 7.05 in 130 mM KCl, 20 mM NaCl at 37°, and 99 mM at pH 7.02 in 225 mM KCl, 25 mM NaCl at 18°. Again, the last value was freshly determined in this study.
Binding constants for competing cations were most thoroughly explored for fura-2. […] Therefore fura-2 binds Mg^2+ less strongly than does quin2, whose Mg^2+ dissociation constants are about 1 mM and 2 mM respectively at 37° and ca. 22° (see references 6 and 7). […]

[3] = Zn2+ titration of dye fluorescence in Zn-EGTA buffer, Hill plots; format: binding; settings: for pKZn / Kd: 120 mM KCl, pH 7.12, room temperature; for Kd: read-out: dissociation constant for zinc
Procedure: Heavy metal binding constants were measured as follows. Affinities of stil-1 and fura-2 for Zn^2+ were measured by titrating 1-2 microM dye in 120 mM KCl, 5 mM K2 H2 EGTA, 10 mM MOPS, 5 mM Tris, with 1M ZnCl2 dispensed from a micrometer syringe. […] (see reference 11).
Binding of fura-2 to some of the physiologically more important heavy divalent metals was also briefly examined. Both stil-1 and fura-2 bind zinc with dissociation constants around 1.6-2 nM (pKZn 8.6-8.8). […] Curiously Zn^2+ shifts the fura-2 spectrum the same way that Ca^2+ does, whereas Zn^2+ quenches quin2 and therefore acts oppositely to Ca^2+. Fura-2 is also better than quin2 in rejecting Mn^2+, the Mn^2+ :Ca^2+ preferences being 42-fold and 510-fold respectively (see reference 26). […] A more precise estimate was prevented by experimental scatter, which may reflect more complicated stoichiometry than 1:1 or imperfectly anaerobic conditions. Both Mn^2+ and Fe^2+ quench fura-2 as expected for metals with many unpaired electrons. For comparison, EGTA prefers Zn^2+, Mn^2+, and Fe^2+ to Ca^2+, by factors of ca. 50, ca. 20, and ca. 8-fold respectively (see reference 11).

[4] = Direct competition between Mn2+ and Ca2+, quenching of dye fluorescence; format: binding; settings: 100 mM KCl, 10 mM KMOPS, pH 7.2, room temperature
Procedure: (§1) Since Mn^2+ and Fe^2+ quench fura-2, the affinities for these ions relative to Ca^2+ could be assessed by direct competition between the metal ions each in stoichiometric excess. […] Fluorescences of 0.5 microM fura-2 at room temperature were recorded in solutions containing 100 mM KCl, 10 mM KMOPS, pH 7.2. One series also contained 0, 0.1, or 1 mM MnSO4 and 0, 1.1, 2.2, 4.4, or 8.8 mM CaCl2; another series had 2 mM CaCl2 and 0, 0.1, 0.2, 0.5, 1, 2 mM Fe(NH4)2 (SO4)2; and a third series with 0.2 mM Fe(NH4)2 (SO4)2 and 0, 0.2, 0.4, 0.8, 2, 4, and 8 mM CaCl2. Measurements with Fe(II) were made in a cuvet sealed by a septum and continually bubbled with nitrogen; the solutions stayed clear and nearly colorless until the septum was removed after the end of the experiment, whereupon deposition of yellow Fe(OH)3 followed rapidly.
(§2) Binding of fura-2 to some of the physiologically more important heavy divalent metals was also briefly examined. Both stil-1 and fura-2 bind zinc with dissociation constants around 1.6-2 nM (pKZn 8.6-8.8). […] Curiously Zn^2+ shifts the fura-2 spectrum the same way that Ca^2+ does, whereas Zn^2+ quenches quin2 and therefore acts oppositely to Ca^2+. Fura-2 is also better than quin2 in rejecting Mn^2+, the Mn^2+ :Ca^2+ preferences being 42-fold and 510-fold respectively (see reference 26). […]

[5] = Direct competition between Fe2+ and Ca2+, quenching of dye fluorescence; format: binding; settings: 100 mM KCl, 10 mM KMOPS, pH 7.2, under nitrogen
Procedure: as §1, §2

[6] = cited from earlier work
[7] = cited from earlier work; remark: listed apart in the source
[8] = reference 26; cited from earlier work
[9] = reference 26; cited from earlier work; remark: listed apart in the source
[10] = 115 mM KCl, 20 mM NaCl, 10 mM KMOPS, pH 7.05, 1 mM free Mg^2+, 37° C.

- Kd ([2]; 20°): ~9.8 mM
- Kd ([2]; 37° C.): ~5.6 mM
- pKZn [3]: 8.6-8.8
- Kd [3]: 1.6 to 2 nM
- Fe^2+ binding strength relative to Ca^2+ [5]: between three and ten time
SMILES: Cc1ccc(N(CC(=O)O)CC(=O)O)c(OCCOc2cc3cc(-c4ncc(C(=O)O)o4)oc3cc2N(CC(=O)O)CC(=O)O)c1 [fura-2, 1-(2-(5'-carboxyoxazol-2'-yl)-6-aminobenzofuran-5-oxy)-2-(2'-amino-5'-methylphenoxy)ethane-N,N,N',N'-tetraacetic acid]
- Zn^2+:Ca^2+ preference [3]: two orders of magnitude
- Mn^2+:Ca^2+ preference [4]: 42 fold

- Kd ([1]; 100 mM KCl, 20° C., pH 7.1-7.2): 132 nM
- Kd [1, 10]: 200 nM
- pKZn [3]: 8.6-8.8
- Kd [3]: 1.6 to 2 nM
SMILES: Cc1ccc(N(CC(=O)O)CC(=O)O)c(OCCOc2cc(/C=C/c3ccc(C(=O)O)cc3)ccc2N(CC(=O)O)CC(=O)O)c1 [stil-1]
- Zn^2+:Ca^2+ preference [3]: two orders of magnitude

- Kd [1, 10]: 140 nM
SMILES: Cc1ccc(N(CC(=O)O)CC(=O)O)c(OCCOc2cc3cc(-c4ccc(C#N)cc4)oc3cc2N(CC(=O)O)CC(=O)O)c1 [fura-3, 1-(2-(4-cyanophenyl)-6-aminobenzofuran-5-oxy)-2-(2'-amino-5'-methylphenoxy)ethane-N,N,N',N'-tetraacetic acid]

Further lines, the molecule ahead of its results:

SMILES: Cc1ccc(N(CC(=O)O)CC(=O)O)c(OCCOc2cc3cc(-c4ccc(C(=O)O)cc4)oc3cc2N(CC(=O)O)CC(=O)O)c1 [fura-1, 1-(2-(4-carboxyphenyl)-6-amino-benzofuran-5-oxy)-2-(2'-amino-5'-methylphenoxy)ethane-N,N,N',N'-tetraacetic acid]
- Kd [1, 10]: 107 nM

SMILES: Cc1ccc(N(CC(=O)O)CC(=O)O)c(OCCOc2cc(-c3cc4ccc(C(=O)O)cc4[nH]3)ccc2N(CC(=O)O)CC(=O)O)c1 [indo-1, 1-(2-amino-5-[6-carboxyindolyl-2]-phenoxy)-2-(2'-amino-5'-methylphenoxy)ethane-N,N,N',N'-tetraacetic acid]
- Kd from ratio calibration equation 5 ([1]; FIG. 4 data, emission 400 nm / 490 nm, 115 mM KCl, 20 mM NaCl, pH 7.050, 37° C.): 250 nM

SMILES: Cc1ccc(N(CC(=O)O)CC(=O)O)c(OCCOc2cc(/C=C/c3ccc(S(=O)(=O)N(C)C)cc3)ccc2N(CC(=O)O)CC(=O)O)c1 [stil-2]
- Kd ([1]; 100 mM KCl, 37° C., pH 7.08, cis-trans mixture as saponified): 224 nM

SMILES: COc1cc(N(CC(=O)O)CC(=O)O)c2nc(COc3cc(C)ccc3N(CC(=O)O)CC(=O)O)ccc2c1 [quin-2]
- Kd ([6]; 100 mM KCl, 20° C., pH 7.1-7.2, data taken from reference 4, read-out: Apparent Kd for Ca^2+): 80 nM
- Kd ([7]; 37°, references 6 and 7, read-out: Mg^2+ dissociation constant): ~1 mM
- Kd ([7]; background statement, read-out: dissociation constant for Mg^2+): 1 to 2 mM
- Kd ([7]; ca. 22°, references 6 and 7, read-out: Mg^2+ dissociation constant): ~2 mM
- Zn^2+:Ca^2+ preference [8]: 3.5 orders of magnitude
- Mn^2+:Ca^2+ preference [9]: 510 fold

SMILES: O=C(O)CN(CC(=O)O)c1ccccc1OCCOc1ccccc1N(CC(=O)O)CC(=O)O [BAPTA, 1,2-bis(2-aminophenoxy)ethane N,N,N',N'-tetraacetic acid]
- Kd ([6]; parent compound, reference 6, read-out: dissociation constant (Ca^2+)): 110 nM
- Kd ([6]; reference 6, read-out: Kd (Ca^2+)): 100 nM
